Columns and labels:
[1] = DNP polarization build-up and dissolution of ethylacetoacetate with the radical as polarizing agent; conditions: 18 mM radical in 15-Crown-5 / 1,3-13C2 ethylacetoacetate; DNP at 1.2 K, 3.35 T, microwave irradiation
Description: Radical 1 (1.50 mg, 1.4 μmol) was dissolved in 15-Crown-5 (60.5 μl, 67.2 mg) to make a 24 mM solution. To 30 μl (33.7 mg) of this solution was added 1,3-^13C2 ethylacetoacetate (10.5 mg, 79 μmol, 158 μmol ^13C). The radical 1 concentration in the mixture was 18 mM.
43 mg of the composition prepared above were transferred from the Eppendorf tube to a sample cup and the sample cup was inserted into a DNP polarizer. The composition was polarised under DNP conditions at 1.2 K in a 3.35 T magnetic field under irradiation with microwave (93.900 GHz). The calculated solid-state polarization was 17% and the polarization build-up constant was 900 s.
The sample was dissolved in 6 ml 40 mM phosphate buffer pH 7.3+100 mg/l EDTA. A time series of 1D 13C-NMR spectra were recorded with a total delay between the pulses of 3 s. The liquid state polarization was 14% after 12 s transfer time. The pH was 7.3 in the dissolved sample. […]
43 mg of the composition prepared above were transferred from the Eppendorf tube to a sample cup and the sample cup was inserted into a DNP polarizer. […] The calculated solid-state polarization was 18% and the polarization build-up constant was 1700 s.
The sample was dissolved in 6 ml 40 mM phosphate buffer pH 7.3+100 mg/l EDTA. A time series of 1D 13C-NMR spectra were recorded with a total delay between the pulses of 3 s. […]

[2] = Precipitation of the radical on aqueous dissolution and removal by mechanical filtration (UV-Vis check of filtrate); assay type: physicochemical
Description: The sample was dissolved in 6 ml 40 mM phosphate buffer pH 7.3+100 mg/l EDTA. A time series of 1D 13C-NMR spectra were recorded with a total delay between the pulses of 3 s. The liquid state polarization was 14% after 12 s transfer time. The pH was 7.3 in the dissolved sample.
The sample was dissolved in 6 ml 40 mM phosphate buffer pH 7.3+100 mg/l EDTA. A time series of 1D 13C-NMR spectra were recorded with a total delay between the pulses of 3 s. The liquid state polarization was 15% after 12 s transfer time. The pH was 7.3 in the dissolved sample. The sample was filtered through a syringe filter (Acrodisk 25 mm PVDF filter, 0.45 μm pore size). Filtration of the full volume was completed in <3 s. […] Since the high extinction coefficients of the trityl radicals allow reliable determination of concentration down to approximately 1-1.5 μM, the concentration in the filtrate was below these values. The radical was removed to >99%.

Substance: tris{8-carboxyl-2,2,6,6-tetramethyl-benzo(1,2-d:4,5-dS)bis(1,3)dithiole-4-yl}methyl sodium salt [Radical 1, reference compound]
- polarization build-up constant [1]: 900 s
- removal of the radical by mechanical filtration ([2]; after water dissolution): cannot be removed by mechanical filtration
- precipitation of the radical in water dissolution ([2]; dissolved in 6 ml 40 mM phosphate buffer pH 7.3 + 100 mg/l EDTA): does not precipitate
